Consider 8 compounds from US20250154131A1 (HAINAN SIMCERE PHARMACEUTICAL CO., LTD., priority 2021, published 2025).

SMILES strings stand for the structures. pIC50: −log10 of the molar value. A value given as a limit tells only on which side of the number the result lay.

This experiment addresses SARS-COV-2 3CL Protease (Severe acute respiratory syndrome coronavirus 2 (2019-nCoV) (SARS-CoV-2), UniProt P0DTD1). Description: biochemical. Conditions: recombinant MBP-tagged 3CL protease, 30 min preincubation. It counts as biochemical.

One may read the pIC50 as −log10 of the IC50, conventionally taken in molar units. Take `CN(C)C1CCC(C(NC(=O)C(F)(F)F)C(=O)N2C[C@H]3[C@@H]([C@H]2C(=O)N[C@H](C#N)C[C@@H]2CCNC2=O)C3(C)C)CC1` (stereo partly drawn) [Compound 6, (1R,2S,5S)—N—((S)-1-cyano-2-((S)-2-oxopyrrolidin-3-yl)ethyl)-3-(2-(4-(dimethylamino)cyclohexane)-2-(2,2,2-trifluoroacetamido)acetyl)-6,6-dimethyl-3-azabicyclo[3.1.0]cyclohexane-2-carboxamide]: the pIC50 runs as follows: (class symbol column) 6.00 to 7.00; (numeric column) 6.35.
Regarding `CC1(C)[C@@H]2[C@@H](C(=O)N[C@H](C#N)CC3C(=O)Nc4ccccc43)N(C(=O)[C@@H](NC(=O)C(F)(F)F)C34CC5CC(CC(O)(C5)C3)C4)C[C@@H]21` (stereo partly drawn) [Compound 5, (1R,2S,5S)—N-((1S)-1-Cyano-2-(2-carbonylindolin-3-yl)ethyl)-3-((S)-2-((1r,3R,5R,7S)-3-hydroxyadamantan-1-yl)-2-(2,2,2-trifluoroacetamido)acetyl)-6,6-dimethyl-3-azabicyclo[3.1.0]hexane-2-carboxamide], the pIC50 (class symbol column) is above 7.00 and the pIC50 (numeric column) was 7.16.
In the same order, the values of `CC1(C)[C@@H]2[C@@H](C(=O)N[C@H](C#N)C[C@@H]3CCNC3=O)N(C(=O)[C@@H](NC(=O)C(F)(F)F)C34C[C@@H]5C[C@@H](CC(O)(C5)C3)C4)C[C@@H]21` [Compound 10, (1R,2S,5S)—N—((S)-1-Cyano-2-((S)-2-oxopyrrolidin-3-yl)ethyl)-3-((S)-2-((1R,3R,5R,7S)-3-hydroxyadamantan-1-yl)-2-(2,2,2-trifluoroacetamido)acetyl)-6,6-dimethyl-3-azabicyclo[3.1.0]hexane-2-carboxamide] are above 7.00 and 7.16.
As for `CN(C)CCCC[C@H](NC(=O)C(F)(F)F)C(=O)N1C[C@H]2[C@@H]([C@H]1C(=O)N[C@H](C#N)C[C@@H]1CCNC1=O)C2(C)C` [Compound 7, (1R,2S,5S)—N—((S)-1-cyano-2-((S)-2-oxopyrrolidin-3-yl)ethyl)-3-(N^6,N^6-dimethyl-N^2-(2,2,2-trifluoroacetyl)-L-lysyl)-6,6-dimethyl-3-azabicyclo[3.1.0]cyclohexane-2-carboxamide], the pIC50 is, setting by setting: (class symbol column) 5.00 to 6.00; (numeric column) 5.95.
The matching figures for `CC(C)(C)[C@H](NC(=O)C(F)(F)Cl)C(=O)N1C[C@H]2[C@@H]([C@H]1C(=O)N[C@H](C#N)CC1C(=O)Nc3ccccc31)C2(C)C` (stereo partly drawn) [Compound 9, (1R,2S,5S)-3-((S)-2-(2-Chloro-2,2-difluoroacetamido)-3,3-dimethylbutanoyl)-N-((1S)-1-cyano-2-(2-oxoindol-3-yl)ethyl)-6,6-dimethyl-3-azabicyclo[3.1.0]hexane-2-carboxamide]: above 7.00 and 7.60.
In the same order, the values of `CC1(C)[C@@H]2[C@@H](C(=O)N[C@H](C#N)C[C@@H]3CCNC3=O)N(C(=O)C(NC(=O)C(F)(F)F)C3CC4(CCC4)C3)C[C@@H]21` (stereo partly drawn) [Compound 3, (1R,2S,5S)—N—((S)-1-cyano-2-((S)-2-carbonylpyrrolidin-3-yl)ethyl)-6,6-dimethyl-3-(2-(spiro[3.3]heptan-2-yl)-2-(2,2,2-trifluoroacetamido)acetyl)-3-azabicyclo[3.1.0]hexane-2-carboxamide] are 6.00 to 7.00 and 6.28.
The matching figures for `CC1(C)[C@@H]2[C@@H](C(=O)N[C@H](C#N)C[C@@H]3CCNC3=O)N(C(=O)[C@H](Cc3ccc4ccccc4c3)NC(=O)C(F)(F)F)C[C@@H]21` [Compound 4, (1R,2S,5S)—N—((S)-1-Cyano-2-((S)-2-carbonylpyrrolidin-3-yl)ethyl)-6,6-dimethyl-3-((S)-3-(naphthalen-2-yl)-2-(2,2,2-trifluoroacetamido)propanoyl)-3-azabicyclo[3.1.0]hexane-2-carboxamide]: 6.00 to 7.00 and 6.56.
Consider `CC(C)(C)[C@H](NC(=O)C(F)(F)F)C(=O)N1C[C@H]2[C@@H]([C@H]1C(=O)N[C@H](C#N)CC1C(=O)Nc3ncccc31)C2(C)C` (stereo partly shown) [Compound 8], for which the negative-log IC50 (pIC50) (class symbol column) was above 7.00 and the pIC50 (numeric column) was 7.48.
